Patent publication US20250281647A1, “STEALTH LIPID NANOPARTICLE COMPOSITIONS FOR CELL TARGETING” (Generation Bio Co., priority 2023, published 2025)

Molecular target: T1, ASGPR (Homo sapiens, UniProt P07306)
T1 sequence (P07306 1-291): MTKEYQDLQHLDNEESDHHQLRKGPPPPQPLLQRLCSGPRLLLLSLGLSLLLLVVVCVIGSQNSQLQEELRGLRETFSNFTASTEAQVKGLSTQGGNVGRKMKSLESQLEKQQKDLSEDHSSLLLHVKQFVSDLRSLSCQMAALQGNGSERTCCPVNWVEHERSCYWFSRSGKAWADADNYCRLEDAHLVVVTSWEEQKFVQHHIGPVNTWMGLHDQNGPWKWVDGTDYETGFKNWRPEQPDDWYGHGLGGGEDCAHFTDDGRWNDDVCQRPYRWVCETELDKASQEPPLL
Test: Binding of targeting ligand formats to ASGPR
Conditions: read-out: dissociation constants (Kd)
Source text: In this example, multiple targeting ligand formats with varying affinities to ASGPR and off target receptors were compared. […] The high degree of over modification refers to modifying each Fab with more than 1 SATA molecule leading to multiple points of PEG-Mal conjugation during the final phase of ctLNP formulation and conjugation.

Kd: ~0.0307 µM
Compound: CC(=O)N[C@H]1C(O)O[C@H](CO)[C@H](O)[C@@H]1O (stereo partly shown) [GalNAc]
